# Test results published in patent publication US7189732B2, “Pyrido[2,3-d]pyrimidine dichloro-phenyl derivatives” (Hoffman-La Roche Inc., priority 2004, dated 2007).
# pIC50: −log10 of the molar value.
# Tests used:
# [1] = biological target: T1, Src (p60^c-src) (Homo sapiens, UniProt P12931); experiment: SRC-Inhibitor-Assay, time-resolved fluorescence kinase assay (Src); assay type: biochemical; settings: ATP 5 μM; peptide 10 μM; enzyme 2.5 U/ml; pre-incubated 15 min at 15° C.
# T1 construct: purchased Upstate Biotechnology, Inc., Lake Placid, N.Y. (UBI)
# Text: (§1) The activity of the compounds according to this invention as inhibitors for the src-family tyrosine kinases was shown by using the following assay. As used herein Ro refers to the peptide: NH2-A-E-E-E-I-Y-G-E-F-E-A-K-K-K-K-CONH2(SEQ ID NO: 1); Ja133-Ro refers to the peptide: Ja133-G-Aminocaprylic acid-A-E-E-E-I-Y-G-E-F-E-A-K-K-K-K-CONH2(SEQ ID NO: 2), wherein Ja133 is LightCycler-Red 640-N-hydroxy succinimide ester; PT66 refers to a phosphotyrosine specific antibody which can detect the phoyphorylated tyrosine of protein tyrosine kinase; and TCEP refers to Tris(2-carboxyethyl)phosphine; Lck Cisbio Mab PT66-K refers to Anti-Phosphotyrosine (PT66)-Cryptate; and Src EG&G Wallac PT66 Eu-W1024 refers to Eu^3+-labelled Anti-Phosphotyrosine (PT66)-Cryptate.
# (§2) whereby both peptides were synthesized by an optimized solid phase peptide synthesis protocol (Merrifield, Fed. Proc. Fed. Amer. Soc. Exp. Biol. 21(1962) 412) on a Zinsser SMP350 peptide synthesizer. Shortly, the peptide was assembled on 160 mg (22.8 μmol scale) of a Rink-Linker modified polystyrene solid phase by repeatedly conjugating an twenty fold excess of amino acids each protected by temporary piperidine labile Fmoc- and permanent acid labile tert-Bu-, BOC- and tert-BuO-groups depending on the side chain function. The substrate sequence AEEEIYGEFEAKKKK (SEQ ID NO: 1) was N-terminal additionally mounted with the spacer amino acids Aminocaprylic acid and Glycin. After cleavage of the N-terminal temporary protecting group the still attached and protected peptide was labeled with a 1.5 fold amount of LightCycler-Red 640-N-hydroxy succinimide ester (purchased by Roche Diagnostics GmbH) and triethylamine. After 3 hrs. the resin was washed with Dimethylformamide and Isopropanol until the eluates of the blue resin got colorless. […] The substrate was finally isolated by a preparative reverse phase HPLC purification. The purification yielded 12.2 mg RP-HPLC single peak pure blue material (lyophilisate). The identity was proven by Matrix Assisted Laser Desorption Ionization (MALDI) mass spectroscopy [2720.0]. Enzymes: Upstate Lck (p56^lck, active), Upstate Src (p60^c-src, partially purified) were purchased from Upstate Biotechnology, Inc., Lake Placid, N.Y. (UBI). Time-resolved Fluorescence Assay: Reader: Perkin Elmer, Wallac Viktor 1420-040 multilabel counter; Liquid handling system: Beckman Coulter, Biomek 2000. ATP, Tween 20, HEPES were purchased from Roche Molecular Biochemicals, MgCl2 and MnCl2 were purchased from Merck Eurolab, TCEP was purchased from Pierce, 384 Well low volume fluorescence plates was purchased from Falcon. Assay Description:
# (§3) At first the enzyme is pre-incubated for 15 min. at 15° C. in aqueous solution with corresponding amounts of inhibitors according to this invention. Then the phosphorylation reaction is started by adding a reaction mixture, containing ATP, Peptide and PT66, and subsequent shaking. The proceeding of this reaction is immediately monitored using time resolved fluorescence spectroscopy in a suitable well plate reader.
# (§4) The IC50-values can be obtained from the reaction rates by using a non-linear curve fit (EXCELFIT software, from ID Business Solution Ltd., Guilford, Surrey, UK).
# [2] = biological target: T2, Lck (p56^lck) (Homo sapiens, UniProt P06239); experiment: SRC-Inhibitor-Assay, time-resolved fluorescence kinase assay (Lck); assay type: biochemical; settings: ATP 5 μM; peptide 10 μM; enzyme 2.5 U/ml; pre-incubated 15 min at 15° C.
# T2 construct: purchased Upstate Biotechnology, Inc., Lake Placid, N.Y. (UBI)
# Text: as §1, §2, §3, §4
# T1 sequence (P12931 whole entry): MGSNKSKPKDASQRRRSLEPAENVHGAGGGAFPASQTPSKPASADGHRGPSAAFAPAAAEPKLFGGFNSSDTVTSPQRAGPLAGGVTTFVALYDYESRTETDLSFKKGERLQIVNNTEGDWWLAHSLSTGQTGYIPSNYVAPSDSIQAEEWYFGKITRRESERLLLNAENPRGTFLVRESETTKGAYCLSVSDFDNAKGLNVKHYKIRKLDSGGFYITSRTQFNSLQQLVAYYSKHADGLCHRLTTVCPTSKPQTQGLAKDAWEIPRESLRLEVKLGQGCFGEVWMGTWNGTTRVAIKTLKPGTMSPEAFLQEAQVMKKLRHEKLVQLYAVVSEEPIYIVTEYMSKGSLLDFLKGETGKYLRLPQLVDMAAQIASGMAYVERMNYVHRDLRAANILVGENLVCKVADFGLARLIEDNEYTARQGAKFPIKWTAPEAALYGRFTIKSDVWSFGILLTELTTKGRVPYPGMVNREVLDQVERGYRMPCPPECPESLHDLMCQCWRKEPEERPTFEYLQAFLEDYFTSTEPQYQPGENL
# T2 sequence (P06239 whole entry, species assumed): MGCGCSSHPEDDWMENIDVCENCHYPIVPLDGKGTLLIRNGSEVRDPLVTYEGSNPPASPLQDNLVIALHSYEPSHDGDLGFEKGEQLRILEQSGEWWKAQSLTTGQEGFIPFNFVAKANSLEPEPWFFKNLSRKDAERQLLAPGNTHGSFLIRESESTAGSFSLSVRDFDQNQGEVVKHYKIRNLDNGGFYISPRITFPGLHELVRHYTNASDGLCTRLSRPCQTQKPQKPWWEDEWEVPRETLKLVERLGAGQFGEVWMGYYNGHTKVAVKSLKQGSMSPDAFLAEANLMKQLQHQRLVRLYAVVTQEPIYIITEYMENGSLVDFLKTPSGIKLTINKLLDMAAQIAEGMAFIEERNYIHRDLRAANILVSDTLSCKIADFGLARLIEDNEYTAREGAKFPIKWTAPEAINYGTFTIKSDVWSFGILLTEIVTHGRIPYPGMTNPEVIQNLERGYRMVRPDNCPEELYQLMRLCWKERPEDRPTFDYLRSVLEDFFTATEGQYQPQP
pIC50 [1],pIC50 [2],SMILES
9.40,8.77,"O=C(NC[C@H]1CCCN1)c1nc2nc(Nc3ccc(N4CCOCC4)cc3)ncc2cc1-c1c(Cl)cccc1Cl [Example 1, 6-(2,6-Dichloro-phenyl)-2-(4-morpholin-4-yl-phenylamino)-pyrido[2,3-d]pyrimidine-7-carboxylic acid ((R)-1-pyrrolidin-2-ylmethyl)-amide]"
9.52,9.00,"CN1CCN(c2ccc(Nc3ncc4cc(-c5c(Cl)cccc5Cl)c(C(=O)NCCNS(C)(=O)=O)nc4n3)cc2)CC1 [Example 2, 6-(2,6-Dichloro-phenyl)-2-[4-(4-methyl-piperazin-1-yl)-phenylamino]-pyrido[2,3-d]pyrimidine-7-carboxylic acid (2-methanesulfonylamino-ethyl)-amide]"
9.15,8.70,"CS(=O)(=O)NCCNC(=O)c1nc2nc(Nc3cccc(SCCO)c3)ncc2cc1-c1c(Cl)cccc1Cl [Example 3, 6-(2,6-Dichloro-phenyl)-2-[3-(2-hydroxy-ethylsulfanyl)-phenylamino]-pyrido[2,3-d]pyrimidine-7-carboxylic acid (2-methanesulfonylamino-ethyl)-amide]"
8.77,8.19,"N#Cc1nc2nc(Nc3ccc(OCCO)cc3)ncc2cc1-c1c(Cl)cccc1Cl [Example 4, 6-(2,6-Dichloro-phenyl)-2-[4-(2-hydroxy-ethoxy)-phenylamino]-pyrido[2,3-d]pyrimidine-7-carbonitrile]"
8.66,8.12,"NC(=O)c1nc2nc(Nc3ccc(OCCO)cc3)ncc2cc1-c1c(Cl)cccc1Cl [Example 5, 6-(2,6-Dichloro-phenyl)-2-[4-(2-hydroxy-ethoxy)-phenylamino]-pyrido[2,3-d]pyrimidine-7-carboxylic acid amide]"
8.27,8.09,"O=C(NCCO)c1nc2nc(Nc3ccc(OCCO)cc3)ncc2cc1-c1c(Cl)cccc1Cl [Example 6-1, 6-(2,6-Dichloro-phenyl)-2-[4-(2-hydroxy-ethoxy)-phenylamino]-pyrido[2,3-d]pyrimidine-7-carboxylic acid (2-hydroxy-ethyl)-amide]"
8.74,8.39,"O=C(NCCO)c1nc2nc(Nc3ccc(N4CCOCC4)cc3)ncc2cc1-c1c(Cl)cccc1Cl [Example 6-2, 6-(2,6-Dichloro-phenyl)-2-(4-morpholin-4-yl-phenylamino)-pyrido[2,3-d]pyrimidine-7-carboxylic acid (2-hydroxy-ethyl)-amide]"
9.05,8.82,"CS(=O)(=O)NCCNC(=O)c1nc2nc(Nc3ccc(N4CCOCC4)cc3)ncc2cc1-c1c(Cl)cccc1Cl [Example 6-3, 6-(2,6-Dichloro-phenyl)-2-(4-morpholin-4-yl-phenylamino)-pyrido[2,3-d]pyrimidine-7-carboxylic acid (2-methanesulfonylamino-ethyl)-amide]"
8.96,8.80,"CS(=O)(=O)NCCNC(=O)c1nc2nc(Nc3ccc(OCCO)cc3)ncc2cc1-c1c(Cl)cccc1Cl [Example 6-4, 6-(2,6-Dichloro-phenyl)-2-[4-(2-hydroxy-ethoxy)-phenylamino]-pyrido[2,3-d]pyrimidine-7-carboxylic acid (2-methanesulfonylamino-ethyl)-amide]"
9.22,8.77,"O=C(NC[C@H]1CCCN1)c1nc2nc(Nc3ccc(OCCO)cc3)ncc2cc1-c1c(Cl)cccc1Cl [Example 6-5, 6-(2,6-Dichloro-phenyl)-2-[4-(2-hydroxy-ethoxy)-phenylamino]-pyrido[2,3-d]pyrimidine-7-carboxylic acid ((R)-1-pyrrolidin-2-ylmethyl)-amide]"
9.70,8.89,"CS(=O)(=O)NCCNC(=O)c1nc2nc(Nc3cccc(NS(C)(=O)=O)c3)ncc2cc1-c1c(Cl)cccc1Cl [Example 6-6, 6-(2,6-Dichloro-phenyl)-2-(3-methanesulfonylamino-phenylamino)-pyrido[2,3-d]pyrimidine-7-carboxylic acid (2-methanesulfonylamino-ethyl)-amide]"
8.60,8.00,"CSc1cccc(Nc2ncc3cc(-c4c(Cl)cccc4Cl)c(C(=O)NCCNS(C)(=O)=O)nc3n2)c1 [Example 6-7, 6-(2,6-Dichloro-phenyl)-2-(3-methylsulfanyl-phenylamino)-pyrido[2,3-d]pyrimidine-7-carboxylic acid (2-methanesulfonylamino-ethyl)-amide]"
8.33,8.11,"Cc1ccc(Nc2ncc3cc(-c4c(Cl)cccc4Cl)c(C(=O)NCCNS(C)(=O)=O)nc3n2)cn1 [Example 6-8, 6-(2,6-Dichloro-phenyl)-2-(6-methyl-pyridin-3-ylamino)-pyrido[2,3-d]pyrimidine-7-carboxylic acid (2-methanesulfonylamino-ethyl)-amide]"
9.30,8.57,"CCN(CC)CCOc1ccc(Nc2ncc3cc(-c4c(Cl)cccc4Cl)c(C#N)nc3n2)cc1 [Example 7-1, 6-(2,6-Dichloro-phenyl)-2-[4-(2-diethylamino-ethoxy)-phenylamino]-pyrido[2,3-d]pyrimidine-7-carbonitrile]"
8.89,7.93,"N#Cc1nc2nc(Nc3ccc(N4CCOCC4)cc3)ncc2cc1-c1c(Cl)cccc1Cl [Example 7-2, 6-(2,6-Dichloro-phenyl)-2-(4-morpholin-4-yl-phenylamino)-pyrido[2,3-d]pyrimidine-7-carbonitrile]"
9.00,8.43,"NC(=O)c1nc2nc(Nc3ccc(N4CCOCC4)cc3)ncc2cc1-c1c(Cl)cccc1Cl [Example 8-1, 6-(2,6-Dichloro-phenyl)-2-(4-morpholin-4-yl-phenylamino)-pyrido[2,3-d]pyrimidine-7-carboxylic acid amide]"
